Laboratory results published in patent publication US20180185327A1, “FORMULATION COMPRISING PARTICLES AND A LIPASE INHIBITOR” (PERORA GMBH, priority 2015, published 2018).
Read-outs that look alike come from different tables or passages of the source.

Legend:
[1] = after an oral dose; cited from earlier work
[2] = cited from earlier work
[3] = High fat diet feeding experiments in rats (cream chow with orlistat, with or without polymer or lipid granulate); assay type: in vivo, male wistar rats; details: Ex. 3.2: four rats, cream chow 50% fat with added orlistat 0.6 mg/g chow, seven days
Protocol: Animals (male rats) were kept in cages on standard animal bedding (two animals per cage or individual housing) and were provided with ad libitum access to food and water. Animal food was provided as pellets in a pellet rack or as a cream or as granulate powder each filled in a container attached to the inside of the cage.
Body weight was recorded at beginning and end of experiments. Food consumption was documented daily except for weekends. Experiments were performed according to German laws of animal protection.
Rodent chow was purchased from ssniff Spezialdiaten GmbH, Germany; poly(acrylic acid) (PAA, Carbopol® 971 P NF) was obtained from the Lubrizol Corporation, USA; and HPMC (AnyAddy®) was obtained from Harke Pharma, Germany. Orlistat (Hexal, Germany) was purchased in a local pharmacy. Hard fat/tripalmitin (Dynasan® 116), triglyceride (Witepsol® E85), glycerol monooleate (Imwitor®990), and Xanthan were obtained from NRC/Jungbunzlauer, Germany. Glycerol monolaurate (GML 90 food) was obtained from Mosselman, Belgium. Resistant dextrin (Nutriose® FB06) was obtained from Barentz, Germany or Barentz, Netherlands.

CCCCCCCCCCC[C@@H](C[C@@H]1OC(=O)[C@H]1CCCCCC)OC(=O)[C@H](CC(C)C)NC=O [orlistat]
amount absorbed systemically [1]: Only trace amounts
dietary fat prevented from being absorbed ([2]; standard over-the-counter dose of 60 mg): about 25%
dietary fat prevented from being absorbed ([2]; standard prescription dose of 120 mg three times daily before meals): approximately 30%
body weight lost (±SD) [3]: 2.5±1.4%
mean daily food intake [3]: 23.6 g
